The values below are quoted from earlier work in publication PMC5599218 (Biomaterials, 2017).

Data set [1] deals with HIV-1. The conditions noted are these: ref [52].
The conditions of data set [2]: oral daily dosing, 12h after the last dose; ref [52].
For data set [3] the following is noted: women using DPV vaginal rings for 7d; ref [54].
For data set [4] the following is noted: DPV vaginal films, after 6h exposure, estimated; ref [59].

“And” between values parts separate entries of the source, which are not always exact repeats. Identical values can stand only once.

In the case of `Cc1cc(C#N)cc(C)c1Oc1nc(Nc2ccc(C#N)cc2)nc(N)c1Br` [ETR, etravirine], in data set [1], the “in vitro IC50” value is given as ~ 2 ng/mL. Moreover, in data set [2], the “ETR concentration in cervicovaginal fluid (CVF)” value is 0.857 µg/mL.
With `Cc1cc(C)c(Nc2ccnc(Nc3ccc(C#N)cc3)n2)c(C)c1` [DPV, Dapivirine], the “Mean vaginal fluid concentrations of DPV” value in data set [3] is 0.7 to 7.1 µg/mL. Moreover, the “DPV provided to human cervical explant tissues” value in data set [4] was 152–334 nM and 0.05–0.11 μg/mL.
